{"source": "patent EP1209147A1", "about": "“CARBOXYLIC ACID DERIVATIVES AND ADHESION MOLECULE INHIBITORS CONTAINING THE SAME AS THE ACTIVE INGREDIENT” (TORAY INDUSTRIES, INC., priority 1999, dated 2001)", "key": {"Mouse Asthma Model": {"system": "Mouse Asthma Model", "test": "Mouse asthma model (OVA, intranasal induction)", "assay_type": "in vivo, BLAB/c mouse", "settings": "750 µg per time intranasally; BALF on DAY-28; Fig. 2", "protocol": "Equivolume of 10% KAI(SO4)2·12H2O (WAKO) solution and ovalbumin (hereinafter \"OVA\") solution (500 µg/ml) were mixed, and 10N NaOH was slowly added to neutralize the solution to obtain Al(OH)3 gel (OVA 500 µg/ml) on which OVA was adsorbed. The obtained product was intraperitoneally administered to each BLAB/c mouse (female, 7 weeks old, JAPAN CHARLES RIVER) at a dose of 200 µl (100 µg) per mouse on DAY-0 and DAY-14. Thereafter, on DAY-14, 50 µl of 2 mg/ml solution of OVA in physiological saline was intranasally administered, and on DAY-25, 26 and 27, 50 µl of 1 mg/ml solution of OVA in physiologically saline was intranasally administered to induce inflammation. Compound No. 140 used as the test compound was dissolved in physiological saline and the solution was intranasally administered at 30 minutes before induction with OVA, at 8 hours after induction, and on DAY-25, 26 and 27, twice a day, at a dose of 750 µg per time. To the background group and control group, physiological saline was intranasally administered.\nOn DAY-28, bronchus of each mouse was incised and the bronchus and alveoli were washed (BAL) 4 times with 0.7 ml of physiological saline. […] After staining the specimen by May-Giemsa staining method, the leukocytes were grouped and counted under microscope to determine the number of eosinophils. […]"}, "[1]": {"system": "Guinea Pig Rhinitis Model", "test": "Guinea pig rhinitis model (OVA, respiratory resistance)", "assay_type": "in vivo, Harley guinea pig", "settings": "10 mg intranasally before induction by the antigen; 10 minutes to 8 hours after induction; Fig. 3", "protocol": "Cyclophosphamide (SIGMA) was dissolved in physiological saline to a concentration of 25 mg/ml, and the solution was intraperitoneally administered to each Harley guinea pig (male, 2 weeks old, JAPAN SLC) at a dose of 50 mg/kg on DAY-0. Equivolume of OVA (2.0 mg/ml) dissolved in physiological saline and 12 ml of aqueous 9% AlK(SO4)2 solution were mixed, and then 10% aqueous Na2CO3 solution was added thereto to adjust the pH to 6.5, thereby obtaining Al(OH)3 gel (OVA 500 µg/ml) on which OVA was adsorbed. The obtained product was centrifuged and the precipitated gel was washed with PBS(-), followed by addition of Bordetella pertussis cell suspension (WAKO PURE CHEMICALS). The OVA concentration was adjusted to 100 µg/ml, and 1 ml (100 µg) of the resulting product was intraperitoneally administered to each guinea pig. On DAY-22, each mice was made to inhale 1% OVA dissolved in physiological saline for 10 minutes. […] The increase in the respiratory resistance from 10 minutes after the induction to 8 hours after the induction was measured by a respiratory resistance-measuring apparatus (body plethysmograph method; SHIZUME MEDICAL), and the result was expressed in terms of the ratio of the measured resistance based on the respiratory resistance measured before the induction by the antigen. […]"}}}
{"smiles": "CC(C)(C)CC(=O)N[C@@H](CSSC[C@H](NC(=O)CC(C)(C)C)C(=O)O)C(=O)O", "note": "[Example 140, 3-((2(R)-carboxy-2(R)-(3,3-dimethylbutanoylamino)ethyl)disulfanyl)-2(R)-(3,3-dimethylbutanoylamino)propionic acid]", "values": [{"measurement": "accumulation of leukocytes, especially eosinophils, in the lung", "setting": "Mouse Asthma Model", "result": "inhibits"}, {"measurement": "increase in the respiratory resistance", "setting": "[1]", "result": "inhibits"}]}
